Source: patent US7687457B2, “Cyclic molecular framework and derivatives thereof” (The University of Queensland, priority 1999, dated 2010)
Where a SMILES comes first, the peptide text is derived from it.

System: erythrocytes
Assay: haemolytic activity, lysis of erythrocytes
Format: cell-based
Conditions: haemolysis; read-out: concentration causing 50% lysis of erythrocytes

CC[C@H](C)[C@@H]1NC(=O)CNC(=O)[C@H](CC(N)=O)NC(=O)[C@H](Cc2ccc(O)cc2)NC(=O)[C@@H]2CSSC[C@@H]3NC(=O)[C@@H]4CCCN4C(=O)[C@H]([C@@H](C)CC)NC(=O)[C@H](Cc4ccc(O)cc4)NC(=O)[C@H](C(C)C)NC(=O)[C@@H]4CSSC[C@H](NC(=O)[C@H](CO)NC(=O)[C@H](CSSC[C@H](NC(=O)[C@@H]5CCCN5C1=O)C(=O)N[C@@H](C)C(=O)N[C@@H](CCC(=O)O)C(=O)N[C@@H](CO)C(=O)N4)NC(=O)CNC(=O)[C@H](CC(C)C)NC(=O)[C@H](CC(C)C)NC(=O)[C@H](C)NC(=O)[C@H]([C@@H](C)O)NC(=O)[C@H](C(C)C)NC(=O)[C@H]([C@@H](C)O)NC3=O)C(=O)N[C@@H](CO)C(=O)N[C@@H](CC(N)=O)C(=O)N[C@@H](CCCNC(=N)N)C(=O)N[C@@H](C(C)C)C(=O)N2 [cycloviolacin 01] (HELM PEPTIDE1{A.E.S.C.V.Y.I.P.C.T.V.T.A.L.L.G.C.S.C.S.N.R.V.C.Y.N.G.I.P.C}$PEPTIDE1,PEPTIDE1,4:R3-19:R3|PEPTIDE1,PEPTIDE1,9:R3-24:R3|PEPTIDE1,PEPTIDE1,17:R3-30:R3|PEPTIDE1,PEPTIDE1,1:R1-30:R2$$$V2.0)
EC50: ~20 µM
